US20230357179A1, “RAF KINASE INHIBITORS AND METHODS OF USE THEREOF” (Deciphera Pharmaceuticals, LLC, priority 2021, published 2023)

How the values were obtained:
B-Raf kinase = target: T1, B-Raf kinase (Homo sapiens, UniProt P15056); assay: Biochemical assay for B-Raf.1 (coupled pyruvate kinase/lactate dehydrogenase); settings: read-out: BRAF.1 IC50
T1 construct: GST (N); purchased Sigma
Procedure, shortened: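 Reaction rates over the 4–5 h window of a continuous 6 h, 30 °C read were converted to percent inhibition and fitted for IC50. B-Raf (0.13 nM) phosphorylated 30.1 nM MEK with 1 mM ATP; ADP coupled via PK/LDH to NADH loss at 340 nm, 1% DMSO final.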

C-Raf kinase = target: T2, C-Raf kinase (Homo sapiens, UniProt P04049, Y340D/Y341D); assay: Biochemical assay for C-Raf.1 (coupled pyruvate kinase/lactate dehydrogenase); settings: read-out: CRAF.1 IC50
T2 construct: Y340D,; GST (N); purchased Sigma
Procedure, shortened: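 NADH depletion at 340 nm monitored continuously for 6 h at 30° C, with rates taken over 4–5 h. The coupled pyruvate kinase/lactate dehydrogenase reaction used 1 mM ATP, 30.1 nM MEK substrate and 0.43 nM kinase at pH 7.5. IC50 was fitted sigmoidally from percent inhibition of serially diluted compound.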

H2405 cells = assay: H2405 cell proliferation assay (1), resazurin, 96-well; type: cell-based; settings: Homo sapiens, NCI-H2405, inhibition of cell proliferation
Description: H2405 Cell Proliferation Assay (1)
H2405 cells (catalog #CRL-5944) are obtained from the American Type Culture Collect (ATTC, Manassas, VA). Briefly, cells were grown in RPMI 1640 supplemented with 5% characterized fetal bovine serum (Invitrogen, Carlsbad, CA) and 1% Penicillin/Streptomycin/L-Glutamine at 37° C., 5% CO2, and 95% humidity. Cells are expanded until reaching 70-95% confluency at which point they are subcultured or harvested for assay use. A serial dilution of test compound is dispensed into a 96-well black clear bottom plate in triplicate. Three thousand cells are added per well in 200 μL complete growth medium in the 96-well plate. Plates are incubated for 67-72 hours at 37° C., 5% CO2, and 95% humidity. At the end of the incubation, 40 μL of a 440 μM solution of resazurin (Sigma, St. Louis, MO) in PBS is added to each well of the plate and plates are incubated for an additional 5-6 hours at 37° C., 5% CO2, and 95% humidity. Plates are read on a Synergy2 or equivalent reader (Biotek, Winooski VT) using an excitation of 540 nm and an emission of 600 nm. Data is analyzed using Prism software (GraphPad, San Diego, CA) to calculate IC50 values.

B-Raf (V600E) kinase = target: T3, B-Raf (V600E) kinase (Homo sapiens, UniProt P15056, V600E); assay: Biochemical assay for B-Raf (V600E).1 (coupled pyruvate kinase/lactate dehydrogenase); settings: read-out: BRAF V600E.1 IC50
T3 construct: B-Raf (V600E) residues 416-766 with a; GST (N); purchased SignalChem
Procedure, shortened: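 IC50 came from four-parameter sigmoidal fits of percent inhibition, using reaction rates over 3-4 h. Continuous A340 reading (6 h, 30 °C) of a pyruvate kinase/lactate dehydrogenase-coupled reaction: B-Raf V600E 0.03 nM, MEK 30.1 nM, ATP 1 mM, Tris pH 7.5, 1% DMSO.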

T2 sequence (P04049 307-648 Y340D/Y341D): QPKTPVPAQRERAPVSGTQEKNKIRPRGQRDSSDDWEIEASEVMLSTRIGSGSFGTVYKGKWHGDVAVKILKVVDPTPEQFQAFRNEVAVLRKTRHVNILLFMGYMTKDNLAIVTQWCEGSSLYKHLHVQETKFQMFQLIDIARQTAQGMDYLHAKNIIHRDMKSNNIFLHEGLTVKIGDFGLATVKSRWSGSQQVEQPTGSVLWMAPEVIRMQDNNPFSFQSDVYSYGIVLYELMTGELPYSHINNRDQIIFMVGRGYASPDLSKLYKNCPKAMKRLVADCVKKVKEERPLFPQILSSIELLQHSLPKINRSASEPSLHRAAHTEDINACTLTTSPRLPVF
T1 sequence (P15056 416-766): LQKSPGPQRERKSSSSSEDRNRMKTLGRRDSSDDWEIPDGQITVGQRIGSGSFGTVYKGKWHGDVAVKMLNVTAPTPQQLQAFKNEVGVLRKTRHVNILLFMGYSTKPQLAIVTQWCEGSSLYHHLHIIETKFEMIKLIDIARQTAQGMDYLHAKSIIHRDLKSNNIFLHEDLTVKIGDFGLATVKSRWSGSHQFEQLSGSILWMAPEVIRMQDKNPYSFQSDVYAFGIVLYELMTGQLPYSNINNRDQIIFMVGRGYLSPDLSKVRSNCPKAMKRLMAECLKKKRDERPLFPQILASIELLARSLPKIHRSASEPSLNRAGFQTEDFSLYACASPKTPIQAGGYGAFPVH
T3 sequence (P15056 416-766 V600E): as the sequence (P15056 416-766) above, with V185E counted along it

SMILES	IC50 (B-Raf kinase) [nM]	IC50 (C-Raf kinase) [nM]	IC50 (H2405 cells) [nM]	IC50 (B-Raf (V600E) kinase) [nM]
Cc1ncc(NC(=O)NCCC(C)(C)F)cc1-c1nccc(-c2ccnc(NC(=O)C3CC3)c2)n1 [Example 130]	100 to 500	≤ 100	1000 to 10000	≤ 100
Cc1cc(F)c(NC(=O)NCCC(C)(C)C)cc1-c1cc(-c2ccnc(NC(=O)C3CC3)c2)cnn1 [Example 131]	≤ 100	≤ 100	100 to 500	≤ 100
CNC(=O)c1cc(-c2cnnc(-c3cc(NC(=O)NCCC(C)(C)F)c(F)cc3C)c2)ccn1 [Example 132]	100 to 500	100 to 500	1000 to 10000	≤ 100
Cc1ncc(NC(=O)NCCC2(C)CC2)cc1-c1cc(OCCO)nc(-c2ccnc(NC(=O)C3CC3)c2)n1 [Example 133]	≤ 100	≤ 100	500 to 1000	≤ 100
Cc1cc(F)c(NC(=O)NCCC2(C)CC2)cc1-c1ccnc(-c2ccnc(NC(=O)C3CC3)c2)c1 [Example 134]	≤ 100	≤ 100	500 to 1000	≤ 100
COC(=O)Nc1cc(-c2nccc(-c3cc(NC(=O)NCCC4(C)CC4)cnc3C)n2)ccn1 [Example 135]	100 to 500	≤ 100	1000 to 10000	≤ 100
Cc1ncc(NC(=O)NCCC(C)(C)F)cc1-c1ccnc(-c2ccnc(NC(=O)C3CC3)c2)n1 [Example 136]	≤ 100	≤ 100	1000 to 10000	≤ 100
COC1(CCNC(=O)Nc2cnc(C)c(-c3ccnc(-c4ccnc(NC(=O)C5CC5)c4)n3)c2)CC1 [Example 137]	100 to 500	≤ 100	1000 to 10000	≤ 100
COC(=O)Nc1cc(-c2cccc(-c3cc(NC(=O)NCCC4(OC)CC4)cnc3C)c2)ncn1 [Example 138]	100 to 500	≤ 100	1000 to 10000	≤ 100
Cc1cc(F)c(NC(=O)NCCC(C)(C)F)cc1-c1cc(-c2ccnc(NC(=O)C3CC3)c2)cnn1 [Example 139]	≤ 100	≤ 100	500 to 1000	≤ 100
COC(=O)Nc1cc(-c2cnnc(-c3cc(NC(=O)NCCC(C)(C)OC)c(F)cc3C)c2)ccn1 [Example 140]	100 to 500	100 to 500	1000 to 10000	≤ 100
COC(=O)Nc1cc(-c2cnnc(-c3cc(NC(=O)NCCC(C)(C)F)c(F)cc3C)c2)ccn1 [Example 141]	≤ 100	≤ 100	1000 to 10000	≤ 100
COC(C)(C)CCNC(=O)Nc1cc(-c2cc(-c3ccnc(NC(=O)C4CC4)c3)cnn2)c(C)cc1F [Example 142]	≤ 100	≤ 100	500 to 1000	≤ 100
COC(=O)Nc1cc(-c2nccc(-c3cc(NC(=O)NCCC4(OC)CC4)cnc3C)n2)ccn1 [Example 143]	500 to 1000	100 to 500	1000 to 10000	≤ 100
Cc1ncc(NC(=O)NC2CC(C)(C)C2)cc1-c1cc(OCCO)nc(-c2ccnc(NC(=O)C3CC3)c2)n1 [Example 144]	≤ 100	≤ 100	100 to 500	≤ 100
COC(=O)Nc1cc(-c2cc(-c3cc(NC(=O)NCCC4(OC)CC4)c(F)cc3C)ccn2)ccn1 [Example 145]	≤ 100	≤ 100	500 to 1000	≤ 100
COC(=O)Nc1cc(-c2nccc(-c3cc(NC(=O)NCCC4(OC)CC4)c(F)cc3C)n2)ccn1 [Example 146]	≤ 100	≤ 100	1000 to 10000	≤ 100
COC(=O)Nc1cc(-c2nccc(-c3cc(NC(=O)NCCC(C)(C)F)c(F)cc3C)n2)ccn1 [Example 147]	≤ 100	≤ 100	1000 to 10000	≤ 100
COC[C@H]1CCN(C(=O)Nc2cc(-c3cc(-c4ccnc(NC(=O)OC)c4)cnn3)c(C)cc2F)C1 [Example 148]	500 to 1000	500 to 1000	1000 to 10000	≤ 100
